Test results published in patent publication US20140242093A1, “METHODS AND COMPOSITIONS FOR MODULATING THE INNATE IMMUNE RESPONSE AND/OR MYOGENESIS IN A MAMMALIAN SUBJECT” (FRED HUTCHINSON CANCER RESEARCH CENTER, priority 2011, published 2014).

Tested on: human genome (hg18)
Assay: ChIP-Seq of DUX4 binding sites in transduced primary myoblasts
Conditions: for max.cov (peak height): non-repeat binding site
Experimental: Non-redundant reads unambiguously mapped to the human genome were computationally extended to a total length of 200 nucleotides and “peaks” were defined as regions where the number of reads was higher than a statistical threshold compared to the background, as described below. Reads mapping to the X and Y chromosomes were excluded from the analysis.
ChIP was performed and ChIP DNA samples were prepared as previously described in Cao et al., Dev. Cell 18:662-674 (2010), hereby incorporated herein by reference. […] Anti-DUX4 N-terminus polyclonal antibodies FH106 and FH107 were combined to immunoprecipitate DUX4-s. The samples were sequenced with Illumina Genome Analyzer II.
Sequences were extracted by Illumina package GApipeline and reads were aligned using BWA to the human genome (hg18). The inventors only kept one of the duplicated sequences to minimize the artifacts of PCR amplification. Each read was extended in the sequencing orientation to a total of 200 bases to infer the coverage at each genomic position. Peak calling was performed by a house developed R package “peakSig” (pending submission to Bioconductor), which model background reads by a negative binomial distribution. The negative binomial distribution can be viewed as a continuous mixture of Poisson distribution where the mixing distribution of the Poisson rate is modeled as a Gamma prior. This prior distribution is used to capture the variation of background reads density across the genome. Model parameters were estimated by fitting the truncated distribution on the number of bases with low coverage (one to three), to avoid the problem of inferring effective genome size excluding the non-mappable regions, and to eliminate contamination of any foreground signals in the high coverage regions. The inventors also fit a GC dependent mixture model so that the significance of the peaks is determined not only by peak height, but also by the GC content of the neighboring genomic regions.
Discriminative motif discovery was carried out as described in Palii et al. (2011), in which motifs were identified that distinguish a positive and a negative sequence dataset, which in this study, the positive sequences correspond to Dux4 binding sites and negative sequences correspond to the randomly sampled flanking regions of Dux4 binding sites. To generate more accurate presentation of the Dux4 binding sites from the consensus pattern returned by this analysis, the inventors tried to learn a positional weight matrix (PWM) model, using the matches of the consensus pattern as the seed to initialize the iterative expectation-maximization (EM) refinement process similar to MEME. If appropriate, the motifs are extended iteratively as long as there is sequence preference in the flanking region, and refined in the same EM process.
The inventors associated a peak to its closest TSS within the region flanked by CTCF binding sites, which were identified in a ChIP-seq experiment on human CD4+ T cells (GEO accession number GSE12889/GSM325895).

Q: What does the source list for “DUX4-fl: full-length DUX4 protein (SEQ ID NO:110), expressed from lentiviral or pCS2 vectors or in vitro translated”?
A: enrichment of binding in the MaLR family of retrotransposons: ~10 fold; share of sequences under the peaks with a second larger (LTR) motif: Approximately 30%; number of ChIP-Seq peaks (P-value threshold 10^−10, background peaks subtracted): 62,028 peaks; number of ChIP-Seq peaks (P-value threshold 10^−15, background peaks subtracted): 39,737 peaks; share of peaks with motif TAAYBBAATCA near the center (de novo motif analysis): greater than 90%; max.cov (peak height) (AVPI1, chr10, dist2tss 126): 56; max.cov (peak height) (BZW2, chr7, dist2tss 1939): 63; max.cov (peak height) (BZW2, chr7, dist2tss 1955): 86; max.cov (peak height) (C1orf63, chr1, dist2tss −1326): 132; max.cov (peak height) (C6orf191, chr6, dist2tss 61): 250; max.cov (peak height) (C14orf102, chr14, dist2tss −558): 159; max.cov (peak height) (C14orf138, chr14, dist2tss 326): 53; max.cov (peak height) (C14orf138, chr14, dist2tss −4696): 50; max.cov (peak height) (C21orf91, chr21, dist2tss −803): 274; max.cov (peak height) (CBARA1, chr10, dist2tss 2340): 70; max.cov (peak height) (CBARA1, chr10, dist2tss 4786): 250; max.cov (peak height) (CCNA1, chr13, dist2tss 1874): 58; max.cov (peak height) (CCNA1, chr13, dist2tss −2425): 56; max.cov (peak height) (CCNJ, chr10, dist2tss −637): 265; max.cov (peak height) (CLDN14, chr21, dist2tss −2523): 96; max.cov (peak height) (CLK1, chr2, dist2tss 4634): 163; max.cov (peak height) (CSE1L, chr20, dist2tss −1935): 57; max.cov (peak height) (CSE1L, chr20, dist2tss −5914): 53; max.cov (peak height) (CTNNAL1, chr9, dist2tss 641): 198; max.cov (peak height) (CTR9, chr11, dist2tss 1913): 46; max.cov (peak height) (DBR1, chr3, dist2tss 3981): 117; max.cov (peak height) (DDX47, chr12, dist2tss −4416): 55; max.cov (peak height) (DEFB103A, chr8, dist2tss −2289): 55; max.cov (peak height) (DENND2C, chr1, dist2tss −3169): 116; max.cov (peak height) (EGLN1, chr1, dist2tss −1): 205; max.cov (peak height) (EXOSC10, chr1, dist2tss 150): 139; max.cov (peak height) (FAM90A1, chr12, dist2tss −1597): 129; max.cov (peak height) (FBXO33, chr14, dist2tss −2226): 117; max.cov (peak height) (FRG2B, chr10, dist2tss 598): 200; max.cov (peak height) (GPBAR1, chr2, dist2tss −224): 150; max.cov (peak height) (GTF2F1, chr19, dist2tss 134): 83; max.cov (peak height) (HOXB2, chr17, dist2tss −2471): 283; max.cov (peak height) (JUP, chr17, dist2tss −701): 177; max.cov (peak height) (KDM5B, chr1, dist2tss 301): 93; max.cov (peak height) (KIF21A, chr12, dist2tss −1030): 37; max.cov (peak height) (KIF21A, chr12, dist2tss −4249): 73; max.cov (peak height) (MAPKAP1, chr9, dist2tss 3619): 153; max.cov (peak height) (MAPKAP1, chr9, dist2tss −4397): 69; max.cov (peak height) (MAST4, chr5, dist2tss −1253): 269; max.cov (peak height) (MED13, chr17, dist2tss −2755): 43; max.cov (peak height) (NANS, chr9, dist2tss 1843): 85; max.cov (peak height) (NFYA, chr6, dist2tss 49): 159; max.cov (peak height) (PABPN1, chr14, dist2tss −529): 257; max.cov (peak height) (PANX2, chr22, dist2tss −2040): 118; max.cov (peak height) (PELI1, chr2, dist2tss 4936): 85; max.cov (peak height) (PNP, chr14, dist2tss −104): 344; max.cov (peak height) (PPP2R2B, chr5, dist2tss 2498): 91; max.cov (peak height) (PRAMEF12, chr1, dist2tss −1230): 99; max.cov (peak height) (PRPF18, chr10, dist2tss 3230): 57; max.cov (peak height) (PRR4, chr12, dist2tss 83): 54; max.cov (peak height) (PTP4A1, chr6, dist2tss −2227): 105; max.cov (peak height) (PVRL3, chr3, dist2tss 2678): 51; max.cov (peak height) (RBBP6, chr16, dist2tss −1619): 76; max.cov (peak height) (RBBP6, chr16, dist2tss −1922): 323; max.cov (peak height) (RBBP6, chr16, dist2tss −4040): 46; max.cov (peak height) (RFPL1, chr22, dist2tss −3042): 124; max.cov (peak height) (RFPL2, chr22, dist2tss 3057): 129; max.cov (peak height) (RFPL2, chr22, dist2tss −2853): 118; max.cov (peak height) (RFPL4B, chr6, dist2tss −321): 232; max.cov (peak height) (RTN4, chr2, dist2tss 1853): 115; max.cov (peak height) (RTN4, chr2, dist2tss −2562): 52; max.cov (peak height) (SAMD8, chr10, dist2tss 3338): 43; max.cov (peak height) (SEC61A2, chr10, dist2tss −1861): 172; max.cov (peak height) (SFRS2B, chr11, dist2tss 42): 373; max.cov (peak height) (SH3GL2, chr9, dist2tss −4600): 88; max.cov (peak height) (SIAH1, chr16, dist2tss −2337): 118
